According to patent US8729013B2 (priority 2004, dated 2014):
Converted amounts (≈) assume the structure as drawn. Non-standard residues stand in square brackets, D forms with d. Residues, ends and D or L forms follow the SMILES beside them. Orn(N5-OH,N5-Ac) = CC(=O)N(O)CCC[C@H](N)C(=O)O

What was measured:
Format in all cases: cell-based, Staphylococcus aureus
[1] = system: H1071 (RN6390 ΔfhuCBG::ermB); assay: Siderophore plate bioassay (iron source utilization); conditions: TMS agar, 25 μM EDDHA; compared with wildtype
Protocol: Siderophore plate bioassays were performed essentially as described (Sebulsky et al. (2000) J. Bacteriol. 182:4394-4400). Briefly, 10^4 cells/mL were added to molten TMS agar containing 25 μM EDDHA as an iron chelating agent. Ten microliters of iron sources to be tested (DESFERAL® (50 μM), ferrichrome (50 μM), enterobactin (500 μM), staphylobactin (50 μM DESFERAL® equivalents), hemin (250 μg/mL), hemoglobin (2 mg/mL), FeCl3 (50 mM), or ferric citrate (5 mM)) were added to sterile 6 mm-diameter paper disks and placed on the surface of the plates. Growth promotion, as measured by the diameter of the growth halo around each disk, was determined after 48 h incubation, except for heme and hemoglobin, which were measured after 72 hours.

sirA and sirB mutants = assay: Siderophore plate bioassay (growth promotion); conditions: data not shown
Protocol: Siderophore plate bioassays were performed essentially as previously described (Sebulsky et al. (2000) J. Bacteriol. 182:4394-4400) with the following modifications: TMS-agar was cooled to 45° C. before the addition of 10^5 cfu/ml of each strain to be tested. 2,2′-dipyridyl was added at a concentration of 550 μM for plates containing S. aureus Newman and Newman containing vehicle controls (e.g. pAW8 and pALC2073) or 400 μM 2,2′-dipyridyl for strains H803 (Newman sirA::Km) and H804 (Newman sirB::Tet) (see FIG. 1) with or without plasmids. Staphylobactin siderophore was isolated from RN6390 as previously described (Dale et al. (2004) Infect. Immun. 72:29-37). Briefly, S. aureus strains were vigorously shaken in TMS for 48 hours at 37° C. Culture supernatants were recovered by centrifugation in 100% methanol to 1/10 of the volume of the original culture supernatant and passed through Whatman No. 1 filter paper to remove particulate material. Rotary evaporation was used to reduce the volume before application to an LH-20 column (Amersham Biosciences). Fractions were collected, and those testing positive with chrome azurol S (CAS) shuttle solution and for biological activity in siderophore plate bioassays were dried, resuspended in water, and examined by high-performance liquid chromatography (HPLC). Analytical reversed-phase HPLC was used for final purification of siderophore. The column utilized was a Waters ODS2 SPherisorb column (4.6 by 150 mm). Trifluoroacetic acid (0.1%) in water represented solvent A whereas 0.1% trifluoroacetic acid in acetonitrile was used as solvent B. The chromatographic method used was as follows: at a flow rate of 0.75 ml/min, 6% B for 3.5 min., followed by a gradient of 6 to 60% B over 20 min. […] Staphylobactin was collected, dried, and rechromatographed to check for purity. The purity of Staphylobactin siderophore was confirmed by HPLC analysis. Aerobactin was purchased from EMC microcollections and used at a concentration of 1 μg/ml as a control in all bioassays.

S. aureus Newman = assay: Minimum inhibitory concentration (MIC) in TMS
From the text: (§1) Streptonigrin is toxic to cells in the presence of intracellular iron and, therefore, cells importing iron are generally more sensitive to the toxic affects of this drug versus mutants debilitated in iron import (Yeowell et al. (1982) Antimicrob. Agents Chemother. 22:961-968). The minimum inhibitory concentration (MIC) of streptonigrin was approximately 4-fold lower for S. aureus Newman grown in TMS than for either S. aureus H803 or H804 grown in the same media (see Table 2).

[2] = system: S. aureus H803 (Newman sirA::Km); assay: Minimum inhibitory concentration (MIC) in TMS; conditions: H803, bacteria grown in TMS
From the text: as §1

[3] = system: S. aureus H804 (Newman sirB::Tet); assay: Minimum inhibitory concentration (MIC) in TMS; conditions: H804, bacteria grown in TMS
From the text: as §1

[4] = Staphylococcus aureus, NEWMAN, read-out: MIC Streptonigrin

Row | Compound | utilization as iron source by H1071 [1] | growth promotion in mutants (sirA and sirB mutants) | other results
1 | CC(=O)N[C@@H](CCCN([O-])C(=O)/C=C(\C)CCO)C(=O)OCC/C(C)=C/C(=O)N([O-])CCC[C@@H]1NC(=O)[C@H](CCCN([O-])C(=O)/C=C(\C)CCO)NC1=O.[Fe+3] [coprogen] | unable to utilize | – | –
2 | O=C(N[C@H]1COC(=O)[C@@H](NC(=O)c2cccc(O)c2O)COC(=O)[C@@H](NC(=O)c2cccc(O)c2O)COC1=O)c1cccc(O)c1O [enterobactin] | not significantly impaired | – | –
3 | ferric citrate | not significantly impaired | unaffected | –
4 | c1ccc(-c2ccccn2)nc1 [2,2′-dipyridyl] | – | – | MIC higher for Newman than for H803 or H804 (S. aureus Newman): 4 fold; MIC 2,2′-dipyridyl (S. aureus Newman; Newman, bacteria grown in TMS): 500 µM (≈ 78.1 µg/mL); MIC 2,2′-dipyridyl [2]: 125 µM (≈ 19.5 µg/mL); MIC 2,2′-dipyridyl [3]: 125 µM (≈ 19.5 µg/mL)
5 | CC(=O)N(O)CCCCCNC(=O)CCC(=O)N(O)CCCCCNC(=O)CCC(=O)N(O)CCCCCN [DESFERAL®, desferrioxamine B] | unable to utilize | unaffected | –
6 | CC(=O)N(O)CCCC[C@H](NC(=O)CC(O)(CC(=O)N[C@@H](CCCCN(O)C(C)=O)C(=O)O)C(=O)O)C(=O)O [aerobactin] | unable to utilize | unaffected | –
7 | CC(=O)N([O-])CCC[C@@H]1NC(=O)CNC(=O)CNC(=O)CNC(=O)[C@H](CCCN([O-])C(C)=O)NC(=O)[C@H](CCCN([O-])C(C)=O)NC1=O.[Fe+3] [ferrichrome] (cyclo(GGG[Orn(N5-OH,N5-Ac)][Orn(N5-OH,N5-Ac)][Orn(N5-OH,N5-Ac)])) | unable to utilize | – | –
8 | hemoglobin | not significantly impaired | – | –
9 | COC1=C(N)C(=O)c2nc(-c3nc(C(=O)O)c(C)c(-c4ccc(OC)c(OC)c4O)c3N)ccc2C1=O [Streptonigrin, streptonigrin] | – | – | MIC Streptonigrin (S. aureus Newman; Newman, bacteria grown in TMS): 2 ng/mL (≈ 0.00395 µM); MIC (S. aureus Newman; Staphylococcus aureus, Newman + 50 μM DESFERAL, TMS, read-out: MIC Streptonigrin): 2 ng/mL; MIC lower for Newman than for H803 or H804 (S. aureus Newman; grown in TMS): approximately 4 fold; MIC [2, 4]: 8 ng/mL (≈ 0.0158 µM); MIC [3, 4]: 8 ng/mL (≈ 0.0158 µM)
10 | hemin | not significantly impaired | – | –
